Source: ChEMBL document CHEMBL1201862, “PubChem BioAssay data set” (2004)
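Grown in 96-well plates, cells were treated for 48 hours with each compound at five concentrations. Insufficient inhibition: endpoint recorded as highest concentration tested. GI50 marks 50% less growth.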 Calls of active or inactive are those of the source. Rule as the data show it: active = GI50 up to about 1.1 µM and inactive = higher.

How the values were obtained:
Assay in all cases: growth of human tumour cells (NCI), 48 h
786-0 = test system: 786-0
A498 = test system: A498
A549 = test system: A549
BT-549 = test system: BT-549
CAKI-1 = test system: CAKI-1
CCRF-CEM = test system: CCRF-CEM
COLO 205 = test system: COLO 205
DU-145 = test system: DU-145
EKVX = test system: EKVX
HCC 2998 = test system: HCC 2998
HCT-116 = test system: HCT-116
HOP-62 = test system: HOP-62
HT-29 = test system: HT-29
Hs-578T = test system: Hs-578T
IGROV-1 = test system: IGROV-1
K562 = test system: K562
M14 = test system: M14
MCF7 = test system: MCF7
MDA-MB-231 = test system: MDA-MB-231
MDA-MB-435 = test system: MDA-MB-435
MDA-N = test system: MDA-N
MOLT-4 = test system: MOLT-4
Malme-3M = test system: Malme-3M
NCI-H226 = test system: NCI-H226
NCI-H23 = test system: NCI-H23
NCI-H522 = test system: NCI-H522
NCI/ADR-RES = test system: NCI/ADR-RES
OVCAR-3 = test system: OVCAR-3
OVCAR-5 = test system: OVCAR-5
OVCAR-8 = test system: OVCAR-8
PC-3 = test system: PC-3
RXF 393 = test system: RXF 393
SF-268 = test system: SF-268
SF-295 = test system: SF-295
SF-539 = test system: SF-539
SK-MEL-2 = test system: SK-MEL-2
SK-MEL-5 = test system: SK-MEL-5
SK-OV-3 = test system: SK-OV-3
SN12C = test system: SN12C
SNB-75 = test system: SNB-75
T47D = test system: T47D
TK-10 = test system: TK-10
U-251 = test system: U-251
UACC-257 = test system: UACC-257
UACC-62 = test system: UACC-62
HCT-15 = test system: HCT-15
OVCAR-4 = test system: OVCAR-4

Measured: GI50

Cc1n[nH]c(=O)n1N1C(=O)CCCC1=O
inactive: 786-0 > 100 µM | A498 > 100 µM | A549 > 100 µM | BT-549 > 100 µM | CAKI-1 > 100 µM | CCRF-CEM > 100 µM | COLO 205 > 100 µM | DU-145 > 100 µM | EKVX > 100 µM | HCC 2998 > 100 µM | HCT-116 > 100 µM | HOP-62 > 100 µM | HT-29 > 100 µM | Hs-578T > 100 µM | IGROV-1 > 100 µM | K562 63.4 µM | M14 > 100 µM | MCF7 > 100 µM | MDA-MB-231 > 100 µM | MDA-MB-435 > 100 µM | MDA-N > 100 µM | MOLT-4 22.6 µM | Malme-3M > 100 µM | NCI-H226 > 100 µM | NCI-H23 > 100 µM | NCI-H522 > 100 µM | NCI/ADR-RES > 100 µM | OVCAR-3 > 100 µM | OVCAR-5 > 100 µM | OVCAR-8 > 100 µM | PC-3 > 100 µM | RXF 393 > 100 µM | SF-268 > 100 µM | SF-295 > 100 µM | SF-539 > 100 µM | SK-MEL-2 > 100 µM | SK-MEL-5 > 100 µM | SK-OV-3 > 100 µM | SN12C > 100 µM | SNB-75 > 100 µM | T47D > 100 µM | TK-10 > 100 µM | U-251 > 100 µM | UACC-257 > 100 µM | UACC-62 > 100 µM

CC1(C)Oc2ccc3c(=O)c(-c4ccccc4)c(-c4ccccc4)oc3c2C1C(=O)O (stereo unspecified)
33.3 µM: HCT-15
inactive: 786-0 > 100 µM | A498 > 100 µM | A549 > 100 µM | BT-549 > 100 µM | CAKI-1 > 100 µM | CCRF-CEM > 100 µM | COLO 205 > 100 µM | DU-145 > 100 µM | EKVX > 100 µM | HCC 2998 > 100 µM | HCT-116 > 100 µM | HOP-62 > 100 µM | HT-29 > 100 µM | Hs-578T 64.9 µM | IGROV-1 > 100 µM | K562 63 µM | M14 > 100 µM | MCF7 > 100 µM | MDA-MB-231 > 100 µM | MDA-MB-435 > 100 µM | MDA-N > 100 µM | MOLT-4 48.3 µM | Malme-3M > 100 µM | NCI-H226 > 100 µM | NCI-H23 > 100 µM | NCI-H522 > 100 µM | NCI/ADR-RES > 100 µM | OVCAR-3 > 100 µM | OVCAR-4 77.1 µM | OVCAR-5 > 100 µM | OVCAR-8 > 100 µM | PC-3 > 100 µM | RXF 393 > 100 µM | SF-268 > 100 µM | SF-295 > 100 µM | SF-539 > 100 µM | SK-MEL-2 > 100 µM | SK-MEL-5 > 100 µM | SK-OV-3 > 100 µM | SN12C > 100 µM | T47D > 100 µM | TK-10 > 100 µM | U-251 > 100 µM | UACC-257 > 100 µM | UACC-62 > 100 µM
